{"source": "paper PMC11681159", "about": "“Bee pollen peptides as potent tyrosinase inhibitors with anti-melanogenesis effects in murine b16f10 melanoma cells and zebrafish embryos” (Scientific Reports, 2024)", "key": {"mushroom TYR": {"tested_on": "mushroom TYR", "design": "method as in PMID 19440221", "settings": "cited from earlier work", "source_text": "Abu Ubeid et al.[51]. conducted the screening of an internal library to identify the active oligopeptides capable of inhibiting TYR in mushrooms."}, "skin": {"tested_on": "skin", "settings": "treatment of hyperpigmentation; cited from earlier work", "source_text": "In producing cosmetic products and functional foods, safety is of the highest priority during the formulation process."}, "TYR (mono-phenolase)": {"tested_on": "TYR (mono-phenolase)", "settings": "cited from earlier work", "source_text": "In order to check our own hypothesis concerning the ability of the peptide VY-9 to inhibit TYR, we created a synthetic peptide with a matching sequence to test the inhibition in the case of both mono-phenolase and di-phenolase forms. […] Ge et al.[34]. noting that hydrophobic interactions with hydrophobic side chains located at the active sites of TYR could be increased by inhibitors which have aromatic ring structures. […] For instance, Schurink et al.[38]. performed the screening of seven different peptides offering TYR inhibition from protein ... || In order to understand the VY-9 peptide mechanism for TYR inhibition, the inhibition mode was investigated through the analysis of Lineweaver-Burk plots. The plots can be seen in Fig. 3a-d, where four lines of differing gradients meet at the same intersection point for the vertical coordinate at varying concentrations of the VY-9 peptide."}, "TYR (di-phenolase)": {"tested_on": "TYR (di-phenolase)", "settings": "cited from earlier work", "source_text": "In order to check our own hypothesis concerning the ability of the peptide VY-9 to inhibit TYR, we created a synthetic peptide with a matching sequence to test the inhibition in the case of both mono-phenolase and di-phenolase forms. […] The plots can be seen in Fig. 3a-d, where four lines of differing gradients meet at the same intersection point for the vertical coordinate at varying concentrations of the VY-9 peptide."}, "TYR": {"tested_on": "TYR", "settings": "cited from earlier work", "source_text": "TIPs are now widely prepared via enzymatic hydrolysis, due to the ease of controlling the process and the absence of extreme reaction conditions. There are many commercially produced enzymes which are available to support TIP production, among which are trypsin, chymotrypsin, flavourzyme, alkaline protease, neutral protease, papain, and so forth. It is understood that different enzymes can differ in their hydrolytic impact upon a given material because the binding specificity between substrate and enzymes will vary. […] Further fractionation of the MW < 0.65 kDa ultrafiltrated fraction can be carried out by SEC using a Superdex 30 Increase column with a separation range of 100-7,000 Da. […] Where hydrophobic amino acids appear at each end of the peptide chain, this increases the interactivity with the copper active sites of TYR. Furthermore, it was reported by Wang et al.[33]. that a low-molecular-weight (700-1,700 Da) gelatin hydrolysate derived from the sea cucumber wall offered 55.7% hydrophobic amino acids. While the exterior environme ... || (+ 2 further places)"}, "zebrafish embryos": {"tested_on": "zebrafish embryos", "assay": "Melanin inhibitory assay in zebrafish embryos", "type": "in vivo", "settings": "PTU 0.0015%, vs control", "method": "To perform the test of acute toxicity, a total of 20 fertilized zebrafish embryos were collected at around 4 h after fertilization and added to each well in a 12-well plate. These embryos then underwent treatment using different quantities of […] (2, 4, 6, 8, and 10 µM), while the negative control was distilled water and the positive control was 3,4-dichloroaniline. Incubation of the plate then took place until 48 h after fertilization at a temperature of 28.5 ± 1 °C. The test solutions were refreshed at 24 h after fertilization to allow the counting and removal of any dead embryos. Following exposure, a stereomicroscope (SZX16, Olympus, Japan) was used to record the embryo morphological effects. Meanwhile, a slightly modified version of a previously described melanin inhibitory assay was carried out[30]. The embryos were then homogenized using a cold lysis buffer (PBS pH 7.4, 1% Triton-X and 1% DMSF). The lysate then underwent 10 min of sonication before being placed in a centrifuge for 5 min at 10,000×g. The pellet was then removed from the centrifuge and dissolved in 200 µL of 1 N NaOH for 1 h at a temperature of 85 °C. This sample was subsequently vortexed and placed in the centrifuge for a further 5 min at 10,000×g. A microplate reader (Spectramax M5, Molecular Devices, USA) was then employed to determine the supernatant absorbance at 490 nm. Melanin content levels could then by calibrated by using the protein amount, and were reported in the form of a percentage compared to the untreated control. In the melanin inhibitory assay, the positive control used was phenylthiourea (PTU) solution (0.0015%)."}, "[1]": {"settings": "presence of water or oxygen; cited from earlier work", "source_text": "(§1) One role of TYR, which is a binuclear copper enzyme, is to regulate melanogenesis. It acts as a catalyst for the hydroxylation of tyrosine and the oxidation of 3, 4-dihydroxyphenylalanine (L-DOPA) to o-dopaquinone which are the rate limiting reactions which occur during the synthesis of melanin. Skin color is dependent upon the level of melanin synthesis as well as the type of melanin and the way it is distributed through the keratinocytes. Achieving effective inhibition of TYR with minimal adverse side effects has remained a longstanding challenge within the realms of dermatological and cosme ..."}, "cells": {"tested_on": "cells", "settings": "cited from earlier work", "source_text": "as §1"}, "melanoma cells": {"tested_on": "melanoma cells", "settings": "500 µM; cited from earlier work"}, "human melanocytes": {"tested_on": "human melanocytes", "design": "method as in PMID 19440221", "settings": "100 µM, seven days; cited from earlier work"}, "human TYR": {"tested_on": "human TYR", "design": "method as in PMID 19440221", "settings": "cited from earlier work"}, "A375 melanoma cells": {"tested_on": "A375 melanoma cells", "settings": "0.5-1 mM; cited from earlier work"}, "B16F10 melanoma cells": {"tested_on": "B16F10 melanoma cells", "assay": "Melanin content assay in B16F10 cells", "type": "cell-based, mouse", "settings": "arbutin 0.2 mM, 48 h, 405 nm", "method": "In order to assess melanin content, culture flasks were used to grow B16F10 cells (1 × 10^5 cells/flask) for 24 h. […] Cell harvesting was conducted by trypsinization and the cells were then rinsed twice in cold PBS. The cell pellets were then dissolved in 0.3 mL of 1 N NaOH to produce solutions which were heated to 90 °C for a one-hour period. The lysates were then placed in a centrifuge for 10 min at 3,000 × g whereupon a microplate reader was used to assess the melanin quantity at 405 nm. The protein content in the supernatant was evaluated using the Bradford protein assay with the findings presented in the form of a percentage of the control. Arbutin (0.2 mM) served as the positive control. Each trial was carried out in triplicate, with results presented in the form of mean ± standard deviation."}}}
{"compound": "Oc1ccc(O)cc1", "note": "[hydroquinone]", "values": [{"measurement": "IC50", "setting": "mushroom TYR", "value": 680, "unit": "µM"}, {"measurement": "undesirable side effects", "setting": "skin", "value": "contact dermatitis, irritation of the skin, and exogenous ochronosis"}]}
{"compound": "SFLLRN [oligopeptide of an internal library]", "values": [{"measurement": "IC50", "setting": "mushroom TYR", "value": 8000, "unit": "µM"}]}
{"compound": "HPTSEVY [CT-3, rice bran protein hydrolysate peptide]", "values": [{"measurement": "TYR inhibition, mono-phenolase tyrosine substrate reaction", "setting": "TYR (mono-phenolase)", "value": "notable TYR inhibition"}, {"measurement": "TYR inhibition, di-phenolase L-DOPA substrate reaction", "setting": "TYR (di-phenolase)", "value": "did not do so in the di-phenolase L-DOPA substrate reaction"}]}
{"compound": "GYSLGNWVCAAK [obtained from egg white protein]", "values": [{"measurement": "inhibition type", "setting": "TYR", "value": "competitively inhibit TYR"}]}
{"compound": "NC(=S)Nc1ccccc1", "note": "[PTU, phenylthiourea, reference compound]", "values": [{"measurement": "melanin content", "setting": "zebrafish embryos", "value": "differed significantly (p < 0.01) to the control"}]}
{"compound": "O=S(O)O", "note": "[sulfite]", "values": [{"measurement": "stability", "setting": "[1]", "value": "instability in the presence of water or oxygen"}, {"measurement": "toxicity towards cells", "setting": "cells", "value": "high degree of toxicity towards cells"}]}
{"compound": "HGGEGGRPY [CT-1, rice bran protein hydrolysate peptide]", "values": [{"measurement": "TYR inhibition, mono-phenolase tyrosine substrate reaction", "setting": "TYR (mono-phenolase)", "value": "notable TYR inhibition"}, {"measurement": "TYR inhibition, di-phenolase L-DOPA substrate reaction", "setting": "TYR (di-phenolase)", "value": "did not do so in the di-phenolase L-DOPA substrate reaction"}]}
{"compound": "TIPPPT", "values": [{"measurement": "IC50 against TYR", "setting": "TYR", "value": 7590, "unit": "µg/mL"}]}
{"compound": "O=c1cc(CO)occ1O", "note": "[kojic acid]", "values": [{"measurement": "stability", "setting": "[1]", "value": "instability in the presence of water or oxygen"}, {"measurement": "toxicity towards cells", "setting": "cells", "value": "high degree of toxicity towards cells"}]}
{"compound": "LQPSHY [CT-2, rice bran protein hydrolysate peptide]", "values": [{"measurement": "TYR inhibition, mono-phenolase tyrosine substrate reaction", "setting": "TYR (mono-phenolase)", "value": "notable TYR inhibition"}, {"measurement": "TYR inhibition, di-phenolase L-DOPA substrate reaction", "setting": "TYR (di-phenolase)", "value": "did not do so in the di-phenolase L-DOPA substrate reaction"}, {"measurement": "cytotoxic effects", "setting": "melanoma cells", "value": "no cytotoxic effects were recorded"}, {"measurement": "melanogenesis inhibition", "setting": "melanoma cells", "value": "> 50", "unit": "%"}]}
{"compound": "RADSRADC [oligopeptide of an internal library]", "values": [{"measurement": "IC50", "setting": "mushroom TYR", "value": 123, "unit": "µM"}, {"measurement": "reduction in melanin content", "setting": "human melanocytes", "value": 27, "unit": "%"}, {"measurement": "human TYR inhibition vs hydroquinone", "setting": "human TYR", "value": "to a greater extent than was the case with hydroquinone"}]}
{"compound": "IQSPHFF [from Phage Display Library]", "values": [{"measurement": "Ki", "setting": "TYR (di-phenolase); competitive", "value": 765, "unit": "µM"}, {"measurement": "inhibition type", "setting": "TYR (di-phenolase); di-phenolase", "value": "competitive inhibitor"}]}
{"compound": "ECGYF", "values": [{"measurement": "TYR inhibition vs arbutin and glutathione", "setting": "TYR", "value": "exceeded those of arbutin and glutathione"}, {"measurement": "IC50", "setting": "TYR; read-out: TYR inhibition IC50", "value": 460, "unit": "µM"}, {"measurement": "melanin level in A375 cells", "setting": "A375 melanoma cells", "value": "able to lower the melanin levels in cultured A375 melanoma cells more effectively than arbutin or glutathione"}]}
{"compound": "OC[C@H]1O[C@@H](Oc2ccc(O)cc2)[C@H](O)[C@@H](O)[C@@H]1O", "note": "[arbutin, reference compound]", "values": [{"measurement": "reduction in melanin content", "setting": "B16F10 melanoma cells", "value": 54.34, "unit": "%"}]}
{"compound": "YRSRKYSSWY [P4, peptide from an earlier study]", "values": [{"measurement": "IC50", "setting": "mushroom TYR", "value": 40, "unit": "µM"}, {"measurement": "reduction in melanin content", "setting": "human melanocytes", "value": 43, "unit": "%"}, {"measurement": "human TYR inhibition vs hydroquinone", "setting": "human TYR", "value": "to a greater extent than was the case with hydroquinone"}]}
{"compound": "IIPFIF", "values": [{"measurement": "IC50 against TYR", "setting": "TYR", "value": 6160, "unit": "µg/mL"}]}
{"compound": "KFEKKFEK [oligopeptide of an internal library]", "values": [{"measurement": "IC50", "setting": "mushroom TYR", "value": 3600, "unit": "µM"}]}
{"compound": "ILFTLL", "values": [{"measurement": "IC50 against TYR", "setting": "TYR", "value": 9250, "unit": "µg/mL"}]}
{"compound": "MRSRERSSWY [TH10]", "values": [{"measurement": "IC50", "setting": "TYR (mono-phenolase); read-out: IC50 (tyrosine substrate of TYR)", "value": 102, "unit": "µM"}]}
